Results from patent US20170007568A1, “USE OF COMPOSITION CONTAINING IRON (II) AMINO ACID CHELATE IN PREPARATION OF DRUG FOR AMELIORATING DIABETES” (PROFEAT BIOTECHNOLOGY CO., LTD., priority 2014, published 2017).

Columns and labels:
Type in all cases: in vivo, C57BL/6JNR male mice
[1] = tested on: type 2 diabetes mice (nicotinamide/streptozotocin + high fat diet); assay: Insulin (ELISA) of drug-induced diabetic mice; details: dose not printed, one month
Method: (§1) C57BL/6JNR male mice at 6 weeks of age (purchased from National Laboratory Animal Center) were fed with normal diet for 1 week. Each of the mice was injected intraperitoneally with 240 mg/kg nicotinamide, and after 15 minutes, each of the mice was injected intraperitoneally with 100 mg/kg streptozotocin. Two days later, each of the mice was injected with nicotinamide and streptozotocin with the same dosages and method as shown above, followed by feeding with the high fat diet (60% fat). Two months later, the mice having fasting blood glucose higher than 140 mg/dl and impaired glucose tolerance (which meant that the blood glucose values were not measured within normal range after injecting glucose for 2 hours) were picked to be type 2 diabetes mice.
(§2) The mice were divided into 4 groups which included a control group (supplied with phosphate solution), a metformin (Met) group, a composition A1 with low dose (4 mg/kg/day) group, and a composition A1 with high dose (12 mg/kg/day) group. The weights of the mice were measured every 3 days, and the blood glucose values, oral glucose tolerance assay (OGTT), glycated hemoglobin (HbA1c) and insulin variances of the mice were measured every 4 weeks.
(§3) The blood glucose values were measured with a Chemistry Analyzer (Hitachi, Ltd., Japan). […] The insulin variance was measured with enzyme-linked immunosorbent assay (ELISA) (Mercodia, Ltd. Sweden).

[2] = tested on: type 2 diabetes mice (nicotinamide/streptozotocin + high fat diet); assay: HOMA-IR index of drug-induced diabetic mice; details: dose not printed, one month
Method: as §1, §2
The index of homeostasis model assessment for insulin resistance (HOMA-IR) was calculated from the following formula:
HOMA-IR index=insulin (μU/ml)×glucose (mmol/L)/22.5.

[3] = tested on: type 2 diabetes mice (nicotinamide/streptozotocin + high fat diet); assay: Fasting blood glucose of drug-induced diabetic mice; details: dose not printed, one month
Method: as §1, §2, §3

[4] = tested on: type 2 diabetes mice (nicotinamide/streptozotocin + high fat diet); assay: Glycated hemoglobin (HbA1c) of drug-induced diabetic mice; details: dose not printed, one month
Method: as §1, §2, §3

[5] = tested on: type 2 diabetes mice (nicotinamide/streptozotocin + high fat diet); assay: Oral glucose tolerance assay (OGTT) in drug-induced diabetic mice; details: metformin group, dose not given
Method: as §1, §2, §3

| Structure (SMILES) | insulin [1] | HOMA-IR [2] | Fasting blood glucose [3] | Glycated hemoglobin (HbA1c) [4] | HOMA-IR ([2]; listed as metformin) | glucose tolerance (OGTT) [5] |
| --- | --- | --- | --- | --- | --- | --- |
| NCC(=O)O [Glycine] | 12.47 ± 2.36 | 5.23 ± 1.73 | 182.88 ± 11.20 | 3.71 ± 0.03 | – | – |
| CN(C)C(=N)N=C(N)N [Metformin] | 11.11 ± 6.47 | 4.53 ± 1.42 | 169.00 ± 10.77 | 3.57 ± 0.04 | 4.53 | improved |
